Here are results for 71 compounds from patent publication US7727986B2, “Pesticide pyrimidinyloxy substituted phenylamidine derivatives” (Bayer CropScience AG, priority 2005, dated 2010).

Molecules are shown by their SMILES.

A short description of the first data set: logP by HPLC on reversed-phase column (C 18), EEC Directive 79/831 Annex V.A8. The format is physicochemical. To be noted: HPLC, 0.1% aqueous formic acid and acetonitrile, 40° C.; pH 2.3. On the procedure:
Temperature: 40° C.; Mobile phases: 0.1% aqueous formic acid and acetonitrile; linear gradient from 10% acetonitrile to 90% acetonitrile.
In the case of `CCN(C)C=Nc1cc(C)c(Oc2ccnc(N(C)c3ccccc3)n2)cc1C` [Compound 1, N′-{2,5-dimethyl-4-[2-(methyl-phenyl-amino)-pyrimidin-4-yloxy]-phenyl}-N-ethyl-N-methyl-formamidine], the logPa was 1.61. On the same count and under the same terms, under `CCN(C)C=Nc1cc(C)c(Oc2ccnc(Oc3cccc(Cl)c3C)n2)cc1C` [Compound 2, N′-{4-[2-(3-chloro-2-methyl-phenoxy)-pyrimidin-4-yloxy]-2,5-dimethyl-phenyl}-N-ethyl-N-methyl-formamidine] stands 2.08. Still for that read-out and setting: under `CCN(C)C=Nc1cc(C)c(Oc2cc(C)nc(Cl)n2)cc1C` [Compound 3, N′-{4-[(2-chloro-6-methylpyrimidin-4-yl)oxy]-2,5-dimethylphenyl}-N-ethyl-N-methylimido-formamide] stands 1.45; under `CCN(C)C=Nc1cc(C)c(Oc2ncnc(Oc3cccc(Cl)c3C)c2C)cc1C` [Compound 8], 2.6.

Consider `CCN(C)C=Nc1cc(C)c(Oc2ccnc(N(C)CC)n2)cc1C` [Compound 10], for which the logPa turned out to be 0.82. Regarding `CCN(C)C=Nc1cc(C)c(Oc2ccnc(OC)n2)cc1C` [Compound 11], the logPa turned out to be 1.16. `CCCN(C)C=Nc1cc(C)c(Oc2ccnc(OC)n2)cc1C` [Compound 12] returned a logPa of 1.38. Consider `CCCN(C)c1nccc(Oc2cc(C)c(N=CN(C)CC)cc2C)n1` [Compound 13], for which the logPa came to 1.25. On the same count and under the same terms, under `CCN(C)C=Nc1cc(C)c(Oc2cc(Cl)ncn2)cc1C` [Compound 15] stands 1.4; under `CCCN(C)C=Nc1cc(C)c(Oc2cc(Cl)ncn2)cc1C` [Compound 16], 1.56; under `Cc1cc(Oc2cc(Cl)ncn2)c(C)cc1N=CN(C)C(C)C` [Compound 17], 1.54. Turning to `CCN(C)C=Nc1cc(C)c(Oc2ccnc(N3CCOCC3)n2)cc1C` [Compound 19], the logPa is listed as 1.3.

Compound `CCCN(C)C=Nc1cc(C)c(Oc2ccnc(N3CCOCC3)n2)cc1C` [Compound 20] displayed a logPa of 3.13. In turn, `CCN(C)C=Nc1cc(C)c(Oc2ccnc(N3CCCCC3)n2)cc1C` [Compound 21] yielded a logPa of 1.4. Still for that read-out and setting: then `CCCN(C)C=Nc1cc(C)c(Oc2ccnc(N3CCCCC3)n2)cc1C` [Compound 22], with 1.58. `CCN(C)C=Nc1cc(C)c(Oc2ccnc(Cl)n2)cc1C` [Compound 23] came in with a logPa of 1.3. Same read-out and setting: under `CCCN(C)C=Nc1cc(C)c(Oc2ccnc(Cl)n2)cc1C` [Compound 24] stands 1.44; under `Cc1cc(Oc2ccnc(Cl)n2)c(C)cc1N=CN(C)C(C)C` [Compound 25], 1.4; under `COc1nccc(Oc2cc(C)c(N=CN(C)C(C)C)cc2C)n1` [Compound 26], 1.4. Regarding `CCN(C)C=Nc1cc(C)c(Oc2nc(Cl)ncc2C)cc1C` [Compound 27], the logPa was 1.42.

In turn, `CCCN(C)C=Nc1cc(C)c(Oc2nc(Cl)ncc2C)cc1C` [Compound 28] yielded a logPa of 1.68. On the same count and under the same terms, under `Cc1cc(Oc2ccnc(Nc3cccc(Cl)c3)n2)c(C)cc1N=CN(C)C(C)C` [Compound 29] stands 2.04. The same measure, in the same setting: under `CCN(C)C=Nc1cc(C)c(Oc2ccnc(Nc3cccc(Cl)c3)n2)cc1C` [Compound 30] stands 1.94; under `Cc1cc(Oc2ccnc(N3C=NCC3)n2)c(C)cc1N=CN(C)C(C)C` [Compound 31], 1.01. The same measure, in the same setting: under `CCCN(C)C=Nc1cc(C)c(Oc2cc(C)nc(Cl)n2)cc1C` [Compound 32] stands 1.62; under `Cc1cc(Oc2ccnc(N3CCOCC3)n2)c(C)cc1N=CN(C)C(C)C` [Compound 33], 1.46; under `Cc1cc(Oc2ccnc(N3CCCCC3)n2)c(C)cc1N=CN(C)C(C)C` [Compound 34], 1.56. Consider `CCN(C)C=Nc1cc(C)c(Oc2ccnc(Oc3ccccc3)n2)cc1C` [Compound 35], for which the logPa came to 1.68. Still for that read-out and setting: under `CCCN(C)C=Nc1cc(C)c(Oc2ccnc(N(C)C)n2)cc1C` [Compound 38] stands 0.89; under `CCN(C)C=Nc1cc(C)c(Oc2cc(OC)ncn2)cc1C` [Compound 39], 1.32; under `CCCN(C)C=Nc1cc(C)c(Oc2cc(OC)ncn2)cc1C` [Compound 40], 1.47. `CCCN(C)C=Nc1cc(C)c(Oc2cc(N(C)CC)ncn2)cc1C` [Compound 42] returned a logPa of 1.6. Same read-out and setting: then `CCN(C)C=Nc1cc(C)c(Oc2cc(N(C)CC)ncn2)cc1C` [Compound 43], with 1.46; and `CCOc1nccc(Oc2cc(C)c(N=CN(C)C(C)C)cc2C)n1` [Compound 44], with 1.62. Still for that read-out and setting: then `CCN(C)c1cc(Oc2cc(C)c(N=CN(C)C(C)C)cc2C)ncn1` [Compound 45], with 1.56; and `Cc1cc(Oc2nc(Cl)ncc2C)c(C)cc1N=CN(C)C(C)C` [Compound 46], with 1.62; and `CCOc1nccc(Oc2cc(C)c(N=CN(C)CC)cc2C)n1` [Compound 47], with 1.47. The same measure, in the same setting: under `COc1cc(Oc2cc(C)c(N=CN(C)C(C)C)cc2C)ncn1` [Compound 48] stands 1.49; under `CCCN(C)c1cc(Oc2cc(C)c(N=CN(C)CC)cc2C)ncn1` [Compound 49], 1.74. In turn, `CCCN(C)C=Nc1cc(C)c(Oc2ccnc(OCC)n2)cc1C` [Compound 50] came in with a logPa of 1.55.

In turn, `CCCN(C)C=Nc1cc(C)c(Oc2cc(N(C)CCC)ncn2)cc1C` [Compound 51] showed a logPa of 1.79. Same read-out and setting: under `CCCN(C)C=Nc1cc(C)c(Oc2ccnc(Nc3cccc(Cl)c3)n2)cc1C` [Compound 52] stands 2.06; under `CCCN(C)c1cc(Oc2cc(C)c(N=CN(C)C(C)C)cc2C)ncn1` [Compound 53], 1.77.

The compound `CCN(C)C=Nc1cc(C)c(Oc2cc(Cl)nc(C(C)(C)C)n2)cc1C` [Compound 59] came in with a logPa of 2.61. On the same count and under the same terms, under `Cc1cc(Oc2cc(Cl)nc(C(C)(C)C)n2)c(C)cc1N=CN(C)C(C)C` [Compound 60] stands 2.8; under `Cc1cc(Oc2ccnc(N(C)c3ccccc3)n2)c(C)cc1N=CN1CCCCC1` [Compound 61], 1.84; under `Cc1cc(Oc2ccnc(Oc3ccccc3)n2)c(C)cc1N=CN(C)C` [Compound 63], 1.65. Regarding `CCN(C)C=Nc1cc(C)c(Oc2nc(Cl)ncc2Cl)cc1C` [Compound 64], the logPa is on record as 1.67. `Cc1cc(Oc2ccnc(Oc3ccccc3)n2)c(C)cc1N=CN(C)C(C)C` [Compound 66] displayed a logPa of 1.81.

For `CCCN(C)C=Nc1cc(C)c(Oc2ccnc(Oc3cccc(Cl)c3)n2)cc1C` [Compound 67], the logPa is listed as 2.14. In the case of `Cc1cc(Oc2ccnc(Oc3cccc(Cl)c3)n2)c(C)cc1N=CN(C)C(C)C` [Compound 68], the logPa stood at 2.12. On the same count and under the same terms, then `CCN(C)C=Nc1cc(C)c(Oc2cc(Cl)nc(Cl)n2)cc1C` [Compound 69], with 1.67. As to `CCN(C)C=Nc1cc(C)c(Oc2ccnc(Oc3ccc(F)c(F)c3)n2)cc1C` [Compound 70], the logPa turned out to be 1.93. Take `CCN(C)C=Nc1cc(C)c(Oc2ccnc(Oc3ccc(OC)c(OC)c3)n2)cc1C` [Compound 71]: the logPa was found to be 1.65. Still for that read-out and setting: then `CCN(C)C=Nc1cc(C)c(Oc2ccnc(Oc3ccccc3)n2)cc1C` [Compound 72], with 1.96. Turning to `CCN(C)C=Nc1cc(C)c(Oc2cc(C)nc(Oc3ccccc3)n2)cc1C` [Compound 73], the logPa was determined as 1.99.

Compound `COc1ccc(Oc2nccc(Oc3cc(C)c(N=CN4CCCCC4)cc3C)n2)cc1OC` [Compound 74] yielded a logPa of 1.80. Same read-out and setting: under `Cc1cc(Oc2cc(C)c(N=CN3CCCCC3)cc2C)nc(Oc2ccccc2)n1` [Compound 75] stands 2.09; under `Cc1cc(Oc2ccnc(Oc3ccccc3)n2)c(C)cc1N=CN1CCCCC1` [Compound 76], 2.02. `CCN(C)C=Nc1cc(C)c(Oc2ccnc(Oc3ccc(C(C)(C)C)cc3)n2)cc1C` [Compound 77] yielded a logPa of 2.65.

As for `Cc1cc(Oc2ccnc(Oc3ccc(C(C)(C)C)cc3)n2)c(C)cc1N=CN1CCCCC1` [Compound 78], the logPa is on record as 2.75.

Staying with this data set, now noted: measured at pH = 4 (footnote a).
Regarding `CCN(C)C=Nc1cc(C)c(Oc2cc(C(C)(C)C)ncn2)cc1C` [Compound 4], the logPa was 1.98^a. `CCN(C)C=Nc1cc(C)c(Oc2cc(Oc3cccc(C(F)(F)F)c3)ncn2)cc1C` [Compound 5]: the logPa is on record as 4.35^a.

In the case of `CCN(C)C=Nc1cc(C)c(Oc2cc(-c3cccc(C(F)(F)F)c3)ncn2)cc1C` [Compound 6], the logPa is reported as 3.19^a. Same read-out and setting: then `CCN(C)C=Nc1cc(C)c(Oc2cc(C(F)(F)F)ncn2)cc1C` [Compound 7], with 1.85^a; and `CCN(C)C=Nc1cc(C)c(Oc2cc(Oc3cccc(C(C)(C)C)c3)ncn2)cc1C` [Compound 9], with 4.9^a.

Staying with this data set, now noted: pH 2.3.
For the compound `Cc1cc(Oc2ccnc(Cl)n2)c(C)cc1N` [4-(2-chloro-pyrimidin-4-yloxy)-2.5-dimethyl-phenylamine], the “log P (pH 2.3)” value is given as 1.37.

The same data set, now with this note: reversed-phase C18 HPLC column; pH 2.3; value in preparation example text; read-out: log P (pH 2.3).
For `CCN(C)c1nc(Oc2cc(C)c(N)cc2C)ncc1Cl` [2-(4-amino-2,5-dimethylphenoxy)-5-chloro-N-ethyl-N-methylpyrimidin-4-amine], the chromatographic logP is 1.88. Turning to `Cc1cc(Oc2ccnc(Oc3cccc(Cl)c3C)n2)c(C)cc1N` [4-[2-(3-chloro-2-methyl-phenoxy)-pyrimidin-4-yloxy]-2,5-dimethyl-phenylamine], the chromatographic logP is 2.81. Turning to `Cc1cc(Oc2cc(C)c(N)cc2C)nc(Cl)n1` [4-[(2-chloro-6-methylpyrimidin-4-yl)oxy]-2,5-dimethylaniline], the chromatographic logP turned out to be 1.62. In the case of `CCN(C)c1nc(Oc2cc(C)c([N+](=O)[O-])cc2C)ncc1Cl` [5-chloro-2-(2,5-dimethyl-4-nitrophenoxy)-N-ethyl-N-methylpyrimidin-4-amine], the chromatographic logP turned out to be 4.07. Still for that read-out and setting: then `CCN(C)C=Nc1cc(C)c(Oc2ccnc(N(C)c3ccccc3)n2)cc1C` [Compound 1, N′-{2,5-dimethyl-4-[2-(methyl-phenyl-amino)-pyrimidin-4-yloxy]-phenyl}-N-ethyl-N-methyl-formamidine], with 1.61; and `CCN(C)C=Nc1cc(C)c(Oc2ccnc(Oc3cccc(Cl)c3C)n2)cc1C` [Compound 2, N′-{4-[2-(3-chloro-2-methyl-phenoxy)-pyrimidin-4-yloxy]-2,5-dimethyl-phenyl}-N-ethyl-N-methyl-formamidine], with 2.08; and `CCN(C)C=Nc1cc(C)c(Oc2cc(C)nc(Cl)n2)cc1C` [Compound 3, N′-{4-[(2-chloro-6-methylpyrimidin-4-yl)oxy]-2,5-dimethylphenyl}-N-ethyl-N-methylimido-formamide], with 1.45.
